# Laboratory results reported in US20210032257A1, “(E)-1-(4-(DIMETHYLAMINO)BUT-2-ENOYL)PYRROLIDIN-3-YL 4-((3-ISOPROPYL-5-METHYLPYRAZOLO[1,5-A]PYRIMIDIN-7-YL)AMINO)PIPERIDINE-1-CARBOXYLATE FOR INHIBITING CDK7” (Eli Lilly and Company, priority 2017, published 2021).
# Legend:
# Experiment in all cases: Biomarker study proliferation (CellTiter-Glo)
# Type in all cases: cell-based
# NCIH1048 = system: NCIH1048
# In short: (§1)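 An ATP-based luminescent readout quantified growth inhibition following a seven-day incubation with serially diluted test compound. Cells were plated overnight beforehand at 5000 per well.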
# HEYA8 = system: HEYA8
# In short: as §1
# C33A = system: C33A
# In short: as §1
# KYSE270 = system: KYSE270
# In short: as §1
# SW900 = system: SW900
# In short: as §1
# NCIH2347 = system: NCIH2347
# In short: as §1
# A2780 = system: A2780
# In short: as §1
# SW626 = system: SW626
# In short: as §1
# HS294T = system: HS294T
# In short: as §1
# A375 = system: A375
# In short: as §1
# MKN7 = system: MKN7
# In short: as §1
# LN229 = system: LN229
# In short: as §1
# NCIH1436 = system: NCIH1436
# In short: as §1
# SHSY5Y = system: SHSY5Y
# In short: as §1
# HUH1 = system: HUH1
# In short: as §1
# SKOV3 = system: SKOV3
# In short: as §1
# CCRFCEM = system: CCRFCEM
# In short: as §1
# HEC1A = system: HEC1A
# In short: as §1
structure (smiles),measurement,setting,value
"Cc1cc(NC2CCN(C(=O)O[C@H]3CCN(C(=O)/C=C/CN(C)C)C3)CC2)n2ncc(C(C)C)c2n1 [Example 1, [(3S)-1-[(E)-4-(dimethylamino)but-2-enoyl]pyrrolidin-3-yl] 4-[(3-isopropyl-5-methyl-pyrazolo[1,5-a]pyrimidin-7-yl)amino]piperidine-1-carboxylate]",IC50,"NCIH1048; Homo sapiens, NCI-H1048, 168 h, read-out: Anti-proliferation effect IC50",4 nM
same,Anti-proliferation effect % Inh.,"NCIH1048; NCIH1048, LUNG, 7 days",95%
same,Anti-proliferation effect Outcome,"NCIH1048; NCIH1048, LUNG, 7 days",Cytotoxic (cytotoxic (IC50<1 μM and % inhibition ≥70%))
same,IC50,"HEYA8; HEY A8, 168 h, read-out: Anti-proliferation effect IC50",112 nM
same,Anti-proliferation effect % Inh.,"HEYA8; HEYA8, OVARY, 7 days",89%
same,Anti-proliferation effect Outcome,"HEYA8; HEYA8, OVARY, 7 days",Cytotoxic (cytotoxic (IC50<1 μM and % inhibition ≥70%))
same,Anti-proliferation effect % Inh.,"C33A; C33A, CERVIX, 7 days",79%
same,Anti-proliferation effect Outcome,"C33A; C33A, ENDOMETRIUM, 7 days",Cytotoxic (cytotoxic (IC50<1 μM and % inhibition ≥70%))
same,IC50,"C33A; Homo sapiens, C-33-A, 168 h, read-out: Anti-proliferation effect IC50",14 nM
same,IC50,"KYSE270; Homo sapiens, KYSE-270, 168 h, read-out: Anti-proliferation effect IC50",> 10000 nM
same,Anti-proliferation effect % Inh.,"KYSE270; KYSE270, OESOPHAGUS, 7 days",−180%
same,Anti-proliferation effect Outcome,"KYSE270; KYSE270, OESOPHAGUS, 7 days",Insensitive (insensitive (IC50≥1 μM))
same,IC50,"SW900; Homo sapiens, SW900, 168 h, read-out: Anti-proliferation effect IC50",3810 nM
same,Anti-proliferation effect % Inh.,"SW900; SW900, LUNG, 7 days",13%
same,Anti-proliferation effect Outcome,"SW900; SW900, LUNG, 7 days",Insensitive (insensitive (IC50≥1 μM))
same,IC50,"NCIH2347; Homo sapiens, NCI-H2347, 168 h, read-out: Anti-proliferation effect IC50",661 nM
same,Anti-proliferation effect % Inh.,"NCIH2347; NCIH2347, LUNG, 7 days",45%
same,Anti-proliferation effect Outcome,"NCIH2347; NCIH2347, LUNG, 7 days",Cytostatic (cytostatic (IC50<1 μM and % inhibition <70%))
same,Anti-proliferation effect % Inh.,"A2780; A2780, OVARY, 7 days",74%
same,Anti-proliferation effect Outcome,"A2780; A2780, OVARY, 7 days",Cytotoxic (cytotoxic (IC50<1 μM and % inhibition ≥70%))
same,IC50,"A2780; Homo sapiens, A2780, 168 h, read-out: Anti-proliferation effect IC50",52 nM
same,IC50,"SW626; Homo sapiens, SW626, 168 h, read-out: Anti-proliferation effect IC50",1100 nM
same,Anti-proliferation effect % Inh.,"SW626; SW626, 7 days",39%
same,Anti-proliferation effect Outcome,"SW626; SW626, 7 days",Insensitive (insensitive (IC50≥1 μM))
same,Anti-proliferation effect % Inh.,"HS294T; HS294T, SKIN, 7 days",84%
same,Anti-proliferation effect Outcome,"HS294T; HS294T, SKIN, 7 days",Cytotoxic (cytotoxic (IC50<1 μM and % inhibition ≥70%))
same,IC50,"HS294T; Homo sapiens, Hs 294T, 168 h, read-out: Anti-proliferation effect IC50",20 nM
same,Anti-proliferation effect % Inh.,"A375; A375, SKIN, 7 days",86%
same,Anti-proliferation effect Outcome,"A375; A375, SKIN, 7 days",Cytotoxic (cytotoxic (IC50<1 μM and % inhibition ≥70%))
same,IC50,"A375; Homo sapiens, A-375, 168 h, read-out: Anti-proliferation effect IC50",55 nM
same,IC50,"MKN7; Homo sapiens, MKN-7, 168 h, read-out: Anti-proliferation effect IC50",> 10000 nM
same,Anti-proliferation effect % Inh.,"MKN7; MKN7, STOMACH, 7 days",39%
same,Anti-proliferation effect Outcome,"MKN7; MKN7, STOMACH, 7 days",Insensitive (insensitive (IC50≥1 μM))
same,IC50,"LN229; Homo sapiens, LN-229, 168 h, read-out: Anti-proliferation effect IC50",36 nM
same,Anti-proliferation effect % Inh.,"LN229; LN229, CNS, 7 days",63%
same,Anti-proliferation effect Outcome,"LN229; LN229, CNS, 7 days",Cytostatic (cytostatic (IC50<1 μM and % inhibition <70%))
same,IC50,"NCIH1436; Homo sapiens, NCI-H1436, 168 h, read-out: Anti-proliferation effect IC50",195 nM
same,Anti-proliferation effect % Inh.,"NCIH1436; NCIH1436, LUNG, 7 days",56%
same,Anti-proliferation effect Outcome,"NCIH1436; NCIH1436, LUNG, 7 days",Cytostatic (cytostatic (IC50<1 μM and % inhibition <70%))
same,IC50,"SHSY5Y; Homo sapiens, SH-SY5Y, 168 h, read-out: Anti-proliferation effect IC50",59 nM
same,Anti-proliferation effect % Inh.,"SHSY5Y; SHSY5Y, CNS, 7 days",95%
same,Anti-proliferation effect Outcome,"SHSY5Y; SHSY5Y, CNS, 7 days",Cytotoxic (cytotoxic (IC50<1 μM and % inhibition ≥70%))
same,Anti-proliferation effect % Inh.,"HUH1; HUH1, LIVER, 7 days",72%
same,Anti-proliferation effect Outcome,"HUH1; HUH1, LIVER, 7 days",Cytotoxic (cytotoxic (IC50<1 μM and % inhibition ≥70%))
same,IC50,"HUH1; Homo sapiens, HuH-1, 168 h, read-out: Anti-proliferation effect IC50",128 nM
same,IC50,"SKOV3; Homo sapiens, SK-OV-3, 168 h, read-out: Anti-proliferation effect IC50",> 10000 nM
same,Anti-proliferation effect % Inh.,"SKOV3; SKOV3, OVARY, 7 days",27%
same,Anti-proliferation effect Outcome,"SKOV3; SKOV3, OVARY, 7 days",Insensitive (insensitive (IC50≥1 μM))
same,Anti-proliferation effect % Inh.,"CCRFCEM; CCRFCEM, BLOOD, 7 days",96%
same,Anti-proliferation effect Outcome,"CCRFCEM; CCRFCEM, BLOOD, 7 days",Cytotoxic (cytotoxic (IC50<1 μM and % inhibition ≥70%))
same,IC50,"CCRFCEM; Homo sapiens, CCRF-CEM, 168 h, read-out: Anti-proliferation effect IC50",40 nM
same,Anti-proliferation effect % Inh.,"HEC1A; HEC1A, ENDOMETRIUM, 7 days",56%
same,Anti-proliferation effect Outcome,"HEC1A; HEC1A, ENDOMETRIUM, 7 days",Cytostatic (cytostatic (IC50<1 μM and % inhibition <70%))
same,IC50,"HEC1A; Homo sapiens, HEC-1-A, 168 h, read-out: Anti-proliferation effect IC50",162 nM
